Counter-ions that a name gives are not always drawn.

The values that follow come from patent US20260232750A1, “COMPOSITION AND METHOD FOR INHIBITING ADVANCED GLYCATION END PRODUCTS” (ACCESS BUSINESS GROUP INTERNATIONAL LLC, priority 2022, published 2026).

Assay [1] concerns CML expression in human dermal fibroblasts (HDFs). The experiment in a line: Anti-glycation activity on HDFs (CML immunofluorescence, glyoxal/MGO-induced). It counts as cell-based. The protocol:
HDFs cells were digested from T75 flasks and seeded to 12 well culture plate on slides at 50,000 cells per well. After 48 h the cells were treated by 0.5 mM glyoxal for 48 h. Then the cells were treated with or without positive controls or active samples for an additional 48 h. At the end of the experiment, cell slides were washed once by phosphate-buffered saline (PBS) and fixed in polyformaldehyde overnight at 4° C. For […] (CML) biomarker staining, the slides were blocked in 1% bovine serum albumin (BSA) for 1 h then applied with primary CML antibody (1:50) overnight at 4° C. The next day secondary antibody (1:1000) was applied for 2 h at room temperature. […] Image J was used to quantified CML expression from different visions randomly picked by each group. Data is presented as the mean±SD, and analyzed with Student's t-test or one-way ANOVA. * P<0.05, ** P<0.01, *** P<0.001. […]
HDFs were cultured in high-glucose DMEM supplemented with 10% FBS containing 100 µg/ml of PS at 37° C. in a humidified 5% CO2 incubator. Cell viability was assessed using the CCK-8 kit. […] Counterstaining was performed by adopting anti-fluorescence quenching and sealing liquid containing DAPI, followed by visualisation and fluorescence image capture using a microscope (Leica, Germany). ImageJ software was used to quantify CML expression from different images randomly selected in each group.

The subject of assay [2] is AGEs in wild type AB zebrafish. The experiment in a line: Anti-glycation activity on zebrafish (AGEs increase model, 0.4 M glucose). In kind it is in vivo. The settings on record: 200 μg/mL, 5 dpf zebrafish, 24 h. The protocol: Zebrafish were all fed in fish culture water at 28° C. (water quality: 200 mg instant sea salt was added to 1 L reverse osmosis water, the conductivity was 450-550 μS/cm; PH 6.5~8.5; Hardness of 50-100 mg/L CaCO3), provided by a fish breeding center, experimental animal use license number: SYXK (Zhejiang) 2012-0171, feeding management in line with the international AAALAC certification (certification number: 001458) requirements. Wild type AB zebrafish are bred naturally in pairs. Zebrafish aged 5 days after fertilization (DPF) were used to evaluate the anti-aging efficacy of samples.
Five DPF wild type AB zebrafish were randomly selected and placed in 1.5 mL centrifuge tubes, with 10 zebrafish in each tube (experimental group). The extracts of Dendrobium officinale flower were given in aqueous solution with positive control aminoguanidine hydrochloride (AG) concentration of 200 μg/mL, and normal control group and model control group were set at the same time. The volume of each tube was 150 μL. […] After 24 h treatment on a 60° C. shaker, the supernatant was centrifuged and the data were collected using a multifunctional microplate reader, the fluorescent values of AGEs in each experimental group were analyzed, and the results of statistical analysis of this indicator were used to evaluate the anti-aging efficacy of samples.

The test system of assay [3] is fluorescent AGEs (BSA-fructose/glucose system). Description: Fluorescent AGEs formation in a BSA-fructose/glucose system. In kind it is biochemical, bovine. The protocol:
The formation of total fluorescent AGEs in glycated samples was assessed by determining their fluorescent intensities at an excitation/emission wavelength of 350/450 nm, as previously described. Glycated protein was prepared in vitro by incubating BSA in the presence of D-glucose (GLC) and D-fructose (FRC). The DOF extract and specific standards were dissolved in DMSO:water (1:4). BSA (4 mg/ml, 100 μl) was preliminary mixed with 50 μl of GLC (0.5 M) and 50 μl of FRC (0.5 M) in 20 mM sodium phosphate buffer (pH 7.4), and then 100 μl samples were added in the 96-well plate and incubated at 37.5° C. for 7 days. All solutions were prepared under sterile conditions and filtered using a 0.22-μm syringe before incubation. The assay was performed in triplicate, and AG was used as a positive control.

The term IC50 denotes the concentration that gives 50% inhibition. On to `N=C(N)NN` [Aminoguanidine hydrochloride], for which, in assay [1] (0.1 mM, 48 h after 0.5 mM glyoxal, Glyoxal = 100.00), the “Anti-glycation effect, CML expression, AVE” value is recorded as 11.89. Further, the inhibition of glycation in assay [1] (positive compound AG, MGO-induced HDFs, CML IF) is 88.11%. In assay [2], the “AGEs fluorescence value (mean ± SE)” value is recorded as 35106 ± 770. Besides, the “IC50, fluorescent AGEs” value in assay [3] (BSA-fructose/glucose, 37.5° C., 7 days, text b277) came to 177.3 ± 11.6 µg/mL. Also, in assay [3] (read-out: IC50, AGE formation), the IC50 stood at 1600 µM.
